Data from US12642809B2, “Fucosylation and immune modulation in cancer” (H. LEE MOFFITT CANCER CENTER AND RESEARCH INSTITUTE, INC., priority 2019, dated 2026).
Entries after “also recorded” stand apart in the source; their conditions may differ.

Columns and labels:
[1] = test system: Leukocyte Adhesion Deficiency II; conditions: L-fuc supplementation; cited from earlier work
HLA-DRB1 [2] = assay: Flow cytometry of cell surface HLA-DRB1 in melanoma cells; type: cell-based, human; conditions: 250 μM, 72 h, panel of melanoma cell lines
Method: Indicated cells were treated for 72 h with DMSO, 250 μM fucosyltransferase inhibitor (FUTi) (Millipore Sigma (St. Louis, MO)), or 250 μM of L-fucose (Biosynth (Oak Terrace, IL)). After 72 h, cells were stained with 0.1 μM PKH26 (Millipore Sigma (St. Louis, MO)) prior to fixation in 4% formaldehyde solution. The cells were stained with anti-HLA-DRB1 (rabbit anti-human HLA-DRB1 (0.2 μg/mL, ab92371, Abcam (Cambridge, UK)) and fluorescein AAL (0.2 μg/ml. Vector Labs (Burlingame, CA)), or anti-human or anti-mouse PD-L1 (Novus Biologicals (Centennial, CO) or Biolegend (San Diego, CA), respectively) overnight. The following day the cells were washed 3 times prior to adding AlexaFluor 594 donkey anti-rabbit (0.8 μg/mL, ThermoFisher Scientific (Waltham, MA)). Cells were washed 3 times and then subject to flow cytometric analyses using a FACSCalibur™ (BD Biosciences (San Jose, CA)). Samples were analyzed using FlowJo™ analysis software (BD Biosciences (San Jose, CA)). Median values of DRB1 and AAL were normalized to PKH26 values and statistical analysis was performed using GraphPad Prism™.

PD-L1 = assay: Flow cytometry of cell surface PD-L1 in melanoma cells; type: cell-based, human or mouse; conditions: 250 μM; WM793, SW1, SM1 cells
From the text: FIGS. 22A, 22B, 22C, 22D, 22E, and 22F show reduced cell surface class II MHC during anti-PD-1 failure; L-PLA schematic and the effects of L-fucose on tumoral PD-L1 expression and peripheral human CD4^+ T cell fucosylation and IFNγ production/secretion. […] We stained for (i) HLA-DRB1 using anti-HLA-DRB1 followed by (+) oligo-conjugated PLA secondary and (ii) fucosylated glycan using biotinylated (“B”) AAL lectin followed by anti-biotin followed by (−) oligo-conjugated PLA secondary. Ligated PLA oligos were subjected to rolling circle amplification PCR (RCA PCR), giving rise to fluorescent punctae. […] Healthy human donor peripheral CD4^+ T cells were treated with DMSO (D) and 250 μM FUTi (i) or L-fuc (L-f) and subjected to (22E) IB analysis for changes in fucosylation (AAL IB) or (22F) ELISA assay to measure changes in IFNγ production/secretion. *=p-value<0.05.
Indicated cells were treated for 72 h with DMSO, 250 μM fucosyltransferase inhibitor (FUTi) (Millipore Sigma (St. Louis, MO)), or 250 μM of L-fucose (Biosynth (Oak Terrace, IL)). After 72 h, cells were stained with 0.1 μM PKH26 (Millipore Sigma (St. Louis, MO)) prior to fixation in 4% formaldehyde solution. […]

HLA-DRB1 [3] = assay: qRT-PCR and immunoblot of HLA-DRB1 in melanoma cells; type: cell-based, human; conditions: 250 μM, panel of melanoma cell lines
Method: Cells were lysed on ice in RIPA lysis buffer (25 mM Tris-HCl pH 7.6, 150 mM NaCl, 5 mM EDTA, 1% NP-40 or 1% Triton X-100, 1% sodium deoxycholate, 0.1% SDS in diH2O+protease and phosphatase inhibitors (ThermoFisher Scientific (Waltham, MA)), briefly sonicated, pelleted, and the resulting lysates were normalized by protein concentration using DC assay (BioRad Laboratories, (Hercules, CA)). The indicated samples were subjected to (12%) SDS-PAGE and immunoblot analysis using the indicated antibodies. Immunoblot imaging and analysis was performed using either an Odyssey FC scanner and ImageStudio (LiCor Biosciences, Lincoln, NE) or film.
RNA from cells subjected to the indicated treatments was extracted using Gene Elute Mammalian Total RNA Extraction System (Millipore Sigma (St. Louis, MO)). RNA was reversed transcribed to cDNA using High-Capacity cDNA Reverse Transcription Kit (ThermoFisher Scientific (Waltham, MA)). qRT-PCR analysis was performed using FastStart Universal SYBR Green Master Mix (Rox) (Roche Diagnostics, (Indianapolis, IN)) using a BioRad CFX96 Real-time system (BioRad Laboratories, (Hercules, CA)). The qRT-PCR cycles used were as follows: 95° C. for 10 min, 35 cycles of 95° C. for 15 seconds, 55° C. for 60 seconds, and 72° C. for 30 seconds. Expression of the indicated genes was normalized to histone H3A expression. […]

SW1 tumors [4] = assay: Anti-PD1 ± L-fucose, SW1 (NRAS-mutant) model in C3H mice; type: in vivo, mouse
From the text: Fucosylation of HLA-DRB1 occurs on amino acid N48 (mutation to G abolishes interaction with fucose-binding AAL, lectin) (FIG. 9A). […] To further investigate the efficacy of the combination therapy of L-fucose and anti-PD1 and to see if the combination of L-fucose and anti-PD1 improved the efficacy of either agent alone, two mouse melanoma mouse models were used. The first was the NRAS-mutant melanoma mouse model. Here, C3H mice were pretreated with anti-PD1 and/or L-fucose or a L-fucose pre-dose followed by anti-PD1 antibody (FIG. 11). […] Using a BRAF-mutant melanoma model, the efficacy of the combination therapy was more pronounced. Here C57BL6 mice were challenged with SMI cells (FIG. 11). 7 days post challenge, mice received either a control, anti-PD1, L-fucose, or L-fucose and anti-PD1.
SW1 or SM1 mouse melanoma cells were injected into syngeneic C3H/HeN female or C57BL/6 male mice, respectively. After approximately 7 days, when the mice tumors reached ˜150 mm^3, the mice were either supplemented with or without 100 mM L-fucose (Biosynth (Oak Terrace, IL)) via drinking water, which was provided ad libitum. Simultaneously, the mice were injected either with PBS (control) or anti-PD1 (20 mg/kg, clone RMP1-14, Bioxcell (West Lebanon, NH)) every 3-4 days until endpoint. When the tumors reached ˜2 cm^3, the animals were sacrificed.

SW1 tumors [5] = assay: SW1/C3H/HeJ model, L-fucose with anti-CTLA4 or anti-PD1 (FIG. 10); type: in vivo, mouse; conditions: oral L-fucose 100 mM from day 14
Method: FIGS. 10A and 10B show Oral L-fucose is more tumor suppressive than α-CTLA4 or α-PD1 alone, beginnings of improved effects. SW1 tumor growth curves in mice fed ±100 mM L-fucose treated with either control (PBS) or […] (10A) or α-PD1 (10B). Combinations are color-coded as indicated. N=8 mice per condition. L-fucose was administered in the water starting on day 14 (refreshed twice weekly); α-CTLA4 or α-PD1 was administered (20 mg/kg each) twice weekly starting day 14.

C[C@H](O)[C@@H](O)[C@@H](O)[C@H](O)C=O [L-fucose]
co-morbidities [1]: without significant co-morbidities | symptoms of the disorder [1]: can be mitigated | cell surface HLA-DRB1 relative to DMSO (HLA-DRB1 [2]): promotes cell surface abundance; also recorded: increased | cell surface HLA-DRB1 relative to DMSO (HLA-DRB1 [2]; listed as L-fuc): increased | cell surface PD-L1 (PD-L1): did not find that modulating fucosylation alters | HLA-DRB1 mRNA and protein levels (HLA-DRB1 [3]): neither HLA-DRB1 mRNA nor protein levels were altered | suppressed tumor growth (SW1 tumors [4]; 100 mM L-fuc alone): 50-60% | control of tumor (SW1 tumors [4]; NRAS-mutant model, FIG. 11, single agents): effectively control the tumor | tumor suppression compared with anti-PD1 (SW1 tumors [4]; single agents): as much as anti-PD1; also recorded: as well as anti-PD1 | suppression of melanoma growth compared with checkpoint antibodies (SW1 tumors [5]): more significantly than anti-CTLA4 or anti-PD1 alone
